Test results: US10882835B2 (Imago Biosciences, Inc., priority 2013, dated 2021)
pIC50: −log10 of the molar value.

Experiments:
KDM1A (LSD1) = KDM1A (LSD1) (Homo sapiens (Human), UniProt O60341); test: 10-dose IC50 fluorescence coupling enzyme assay, LSD1 demethylase activity on histone H3(1-21)K4me2 peptide (HRP/Amplex Red); type: biochemical; details: 10 μM histone H3(1-21)K4me2 peptide substrate
[1] = Metabolic stability in murine liver microsomes; type: in vitro ADME; details: mouse liver microsomes, 2 μM compound, NADPH
Experimental: The metabolic stability of compounds disclosed herein in pooled human liver microsomes (HLM) and pooled male mouse liver microsomes (MMLM) was determined according to the following protocol, in which the concentrations of compounds in reaction systems were evaluated by LC/MS/MS for estimating the stability in liver microsomes.
Pooled human liver microsomes (HMMCPL; PL050B) and pooled male mouse liver microsomes (MSMCPL; MS033) were purchased from CellzDirect (Invitrogen). Microsomes were stored at −80 C prior to use.
A master solution was prepared containing microsome (stock concentration 5 mg/mL, volume 50 μL, final concentration 0.5 mg/mL), MgCl2 solution (stock concentration 50 mM, volume 50 μL, final concentration 5 mM), phosphate buffer (stock concentration 200 mM, volume 250 μL, final concentration 100 mM), and water (volume […]. Five μL of 200 μM test compounds or control solution (control compound: verapamil) was then added. The final concentration of test compounds or verapamil in the reaction system was 2 μM. The mixture was pre-warmed at 37 C for 5 min.
The reaction was started with the addition of 50 μL of 10 mM NADPH solution at the final concentration of 1 mM and carried out at 37 C. 50 μL of ultra-pure H2O was used instead of NADPH solution in the negative control.
Aliquots of 50 μL were taken from the reaction solution at 0 and 30 min. The reaction was stopped by the addition of 3 volumes of cold methanol with IS (200 nM imipramine, 200 nM labetalol and 2 μM ketoprofen) at the designated time points. Samples were centrifuged at 16,000 g for 10 minutes to precipitate protein. Aliquot of 100 μL of the supernatant was diluted by 100 μL ultra-pure H2O, and the mixture was used for LC/MS/MS analysis. All experiments were performed in duplicate.
Samples were analyzed using liquid chromatography-mass spectrometry. The LC system comprised a Shimadzu liquid chromatograph separation system equipped with degasser DGU-20A3, solvent delivery unit LC-20AD, system controller CBM-20A, column oven CTO-10ASVP and CTC Analytics HTC PAL System. Chromatographic conditions included a Phenomenex column, 5.0μ C18 (2.0×50 mm); a mobile phase of 0.1% formic acid in acetonitrile and 0.1% formic acid in water; an elution rate of 500 μL/min; column temperature 25 C; injection volume 10 μL. Mass spectrometric analysis was performed using an API 4000 instrument from AB Inc. (Canada) with an ESI interface. The data acquisition and control system were created using Analyst 1.5.1 software from ABI Inc. A turbo spray ion source and electrospray ionization were employed in a multiple reaction monitoring (MRM) scan. Additional parameters included: collision gas, 6 L/min; curtain gas, 30 L/min; nebulize gas, 50 L/min; auxiliary gas, 50 L/min; temperature, 500 C; ionspray voltage, +5500 v (positive MRM). Quadripoles Q1 and Q3 were set to 456.2 and 200.2, respectively; declustering potential (DP), entrance potential (EP), and collision cell entrance potential (CE) were set to 120, 10, and 55 v, respectively; collision cell exit potential (CXP) was 12 v.
All calculations were carried out using Microsoft Excel. Peak areas were determined from extracted ion chromatograms. The control compounds were included in the assay. Any value of the compounds that was not within the specified limits was rejected and the experiment was repeated. The reaction system without the cofactors was used to exclude the misleading factor that resulted from instability of chemical itself.

Structure (SMILES)	pIC50 (KDM1A (LSD1))	% at 30 min, MLM [1]	% at 30 min, MLM ([1]; numeric values of Table 2) [%]
COc1ccc([C@@H]2C[C@H]2NCCS(=O)(=O)C[C@H](NC(=O)c2ccc(F)cc2)C(=O)N2CCOCC2)cc1 [Example 18, 4-fluoro-N—((R)-3-((2-(((1R,2S)-2-(4-methoxyphenyl)cyclopropyl)amino)ethyl)sulfonyl)-1-morpholino-1-oxopropan-2-yl)benzamide]	> 6.00	− (− is <20%)	–
O=C(N[C@@H](CS(=O)(=O)CCN[C@@H]1C[C@H]1c1ccc(F)cc1)C(=O)N1CCOCC1)c1ccc(F)cc1 [Example 19, 4-fluoro-N—((R)-3-((2-(((1R,2S)-2-(4-fluorophenyl)cyclopropyl)amino)ethyl)sulfonyl)-1-morpholino-1-oxopropan-2-yl)benzamide]	> 6.00	− (− is <20%)	2.3
CN(C(=O)c1ccccc1)[C@@H](CCCCN[C@]1(C)C[C@H]1c1ccc(F)cc1)C(=O)N1CCN(S(C)(=O)=O)CC1 [Example 27, N-[(2S)-6-[[(1R,2S)-2-(4-fluorophenyl)-1-methylcyclopropyl]amino]-1-(4-methanesulfonylpiperazin-1-yl)-1-oxohexan-2-yl]-N-methylbenzamide]	> 6.00	+ (+ is ≥20%)	–
